# Results from PubChem BioAssay (NCI).
#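 Compound exposure: 48 hours, 5 concentrations, 96-well plates. GI50 marks 50% less growth. TGI marks complete inhibition of growth.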
# How the values were obtained:
# Test in all cases: inhibition of tumour cell growth, NCI panel, 48 h
# [1] = system: 786-0 renal
# [2] = system: HL-60(TB) leukemia
# [3] = system: HT29 colon
# [4] = system: RXF 393 renal
# [5] = system: NCI/ADR-RES ovarian
# [6] = system: T-47D breast
# [7] = system: TK-10 renal
# [8] = system: SR leukemia
# [9] = system: OVCAR-8 ovarian
# [10] = system: SN12C renal
# [11] = system: NCI-H226 lung
# [12] = system: SF-268 CNS
# [13] = system: MALME-3M melanoma
# [14] = system: IGROV1 ovarian
# [15] = system: A498 renal
# [16] = system: UO-31 renal
# [17] = system: CAKI-1 renal
# [18] = system: HS 578T breast
# [19] = system: UACC-257 melanoma
# [20] = system: NCI-H522 lung
# [21] = system: UACC-62 melanoma
# [22] = system: OVCAR-3 ovarian
# [23] = system: COLO 205 colon
# [24] = system: ACHN renal
# [25] = system: OVCAR-4 ovarian
# [26] = system: MOLT-4 leukemia
# [27] = system: BT-549 breast
# [28] = system: SK-MEL-2 melanoma
# [29] = system: A549 NSCLC
# [30] = system: HCT-15 colon
# [31] = system: EKVX NSCLC
# [32] = system: SK-MEL-5 melanoma
# [33] = system: DU-145 prostate
# [34] = system: SF-295 CNS
# [35] = system: PC-3 prostate
# [36] = system: HCC-2998 colon
# [37] = system: SW-620 colon
# [38] = system: CCRF-CEM leukemia
# [39] = system: MDA-MB-231 breast
# [40] = system: OVCAR-5 ovarian
# [41] = system: NCI-H460 lung
# [42] = system: SF-539 CNS
# [43] = system: SK-OV-3 ovarian
# [44] = system: M14 melanoma
# [45] = system: NCI-H23 lung
# [46] = system: SNB-75 CNS
# [47] = system: HCT-116 colon
# [48] = system: SK-MEL-28 melanoma
# [49] = system: SNB-19 CNS
# [50] = system: RPMI-8226 leukemia
# [51] = system: U251 CNS
# [52] = system: MCF7 breast
# [53] = system: LOX IMVI melanoma
# [54] = system: K-562 leukemia
# [55] = system: MDA-MB-435
# [56] = system: HOP-62 NSCLC
# [57] = system: KM12 colon
structure (smiles),measurement,setting,value
C[C@@]1(N2C(=O)OC[C@@H]2c2ccccc2)C(=O)N([C@H](CC(=O)N2CCC(N3CCCCC3)CC2)C(=O)NCc2cccc(C(F)(F)F)c2)[C@@H]1/C=C/c1ccccc1,GI50,[1],1810 nM
same,TGI,[1],3.41 µM
same,GI50,[2],2130 nM
same,TGI,[2],4.65 µM
same,GI50,[3],2310 nM
same,TGI,[3],5.7 µM
same,GI50,[4],2100 nM
same,TGI,[4],4.51 µM
same,GI50,[5],10.2 µM
same,TGI,[5],24 µM
same,GI50,[6],1770 nM
same,TGI,[6],3.53 µM
same,GI50,[7],1800 nM
same,TGI,[7],3.76 µM
same,GI50,[8],1940 nM
same,TGI,[8],4.7 µM
same,GI50,[9],2770 nM
same,TGI,[9],7.24 µM
same,GI50,[10],2000 nM
same,TGI,[10],4.31 µM
same,GI50,[11],22.5 µM
same,TGI,[11],39.7 µM
same,GI50,[12],1760 nM
same,TGI,[12],3.94 µM
same,GI50,[13],1830 nM
same,TGI,[13],3.54 µM
same,GI50,[14],2730 nM
same,TGI,[14],8.49 µM
same,GI50,[15],1880 nM
same,TGI,[15],5.98 µM
same,GI50,[16],1790 nM
same,TGI,[16],3.52 µM
same,GI50,[17],2300 nM
same,TGI,[17],6.55 µM
same,GI50,[18],2090 nM
same,TGI,[18],4.78 µM
same,GI50,[19],2090 nM
same,TGI,[19],3.97 µM
same,GI50,[20],1860 nM
same,TGI,[20],3.85 µM
same,GI50,[21],1850 nM
same,TGI,[21],3.78 µM
same,GI50,[22],1850 nM
same,TGI,[22],3.91 µM
same,GI50,[23],1800 nM
same,TGI,[23],3.58 µM
same,GI50,[24],2030 nM
same,TGI,[24],4.61 µM
same,GI50,[25],2600 nM
same,TGI,[25],9.86 µM
same,GI50,[26],2260 nM
same,TGI,[26],6.42 µM
same,GI50,[27],3.29 µM
same,TGI,[27],9.33 µM
same,GI50,[28],2130 nM
same,TGI,[28],4.22 µM
same,GI50,[29],2060 nM
same,TGI,[29],4.23 µM
same,GI50,[30],1790 nM
same,TGI,[30],3.62 µM
same,GI50,[31],1560 nM
same,TGI,[31],3.69 µM
same,GI50,[32],1810 nM
same,TGI,[32],3.21 µM
same,GI50,[33],2790 nM
same,TGI,[33],8.47 µM
same,GI50,[34],1730 nM
same,TGI,[34],3.42 µM
same,GI50,[35],4.15 µM
same,TGI,[35],15.7 µM
same,GI50,[36],1980 nM
same,TGI,[36],3.79 µM
same,GI50,[37],1980 nM
same,TGI,[37],4.09 µM
same,GI50,[38],2970 nM
same,TGI,[38],7.07 µM
same,GI50,[39],2070 nM
same,TGI,[39],4.03 µM
same,GI50,[40],2780 nM
same,TGI,[40],9.4 µM
same,GI50,[41],2000 nM
same,TGI,[41],3.86 µM
same,GI50,[42],1770 nM
same,TGI,[42],3.32 µM
same,GI50,[43],2090 nM
same,TGI,[43],4.83 µM
same,GI50,[44],1930 nM
same,TGI,[44],3.6 µM
same,GI50,[45],4.12 µM
same,TGI,[45],16.7 µM
same,GI50,[46],1280 nM
same,TGI,[46],2950 nM
same,GI50,[47],1930 nM
same,TGI,[47],3.51 µM
same,GI50,[48],1800 nM
same,TGI,[48],3.51 µM
same,GI50,[49],2550 nM
same,TGI,[49],6.56 µM
same,GI50,[50],2590 nM
same,TGI,[50],6.38 µM
same,GI50,[51],1830 nM
same,TGI,[51],3.43 µM
same,GI50,[52],1850 nM
same,TGI,[52],4.24 µM
same,GI50,[53],1810 nM
same,TGI,[53],3.5 µM
same,GI50,[54],2070 nM
same,TGI,[54],4.82 µM
same,GI50,[55],1740 nM
same,TGI,[55],3.26 µM
same,GI50,[56],2030 nM
same,TGI,[56],5.76 µM
same,GI50,[57],2420 nM
same,TGI,[57],6.21 µM
